# According to patent US20090298934A1, “Diamidine Inhibitors of TDP1” (GOVERNMENT OF THE US, AS REPRESENTED BY THE SECRET, priority 2006, published 2009):
# pIC50: −log10 of the molar value.
# Experiments:
# [1] = molecular target: T1, Tdp1 (Homo sapiens, UniProt Q9NUW8); experiment: Tdp1 gel assay (32P-labeled 14Y / D14Y / 14Y-CC substrates, denaturing PAGE, densitometry); type: biochemical; details: for Ability to inhibit Tdp1 activity in the 14Y substrate (gel): 25 nM 14Y, 1 ng Tdp1, 20 min, pH 8.0, 25° C.; for Conversion half-time (t) of 14Y: 1.9 min in the absence of drug
# T1 construct: His tag with thrombin site and linker (printed […] = X1; made in house; host or cells: E. coli BL21 (Novagen), plasmid pHN1910 in vector pET 15b
# T1 sequence (Q9NUW8 whole entry): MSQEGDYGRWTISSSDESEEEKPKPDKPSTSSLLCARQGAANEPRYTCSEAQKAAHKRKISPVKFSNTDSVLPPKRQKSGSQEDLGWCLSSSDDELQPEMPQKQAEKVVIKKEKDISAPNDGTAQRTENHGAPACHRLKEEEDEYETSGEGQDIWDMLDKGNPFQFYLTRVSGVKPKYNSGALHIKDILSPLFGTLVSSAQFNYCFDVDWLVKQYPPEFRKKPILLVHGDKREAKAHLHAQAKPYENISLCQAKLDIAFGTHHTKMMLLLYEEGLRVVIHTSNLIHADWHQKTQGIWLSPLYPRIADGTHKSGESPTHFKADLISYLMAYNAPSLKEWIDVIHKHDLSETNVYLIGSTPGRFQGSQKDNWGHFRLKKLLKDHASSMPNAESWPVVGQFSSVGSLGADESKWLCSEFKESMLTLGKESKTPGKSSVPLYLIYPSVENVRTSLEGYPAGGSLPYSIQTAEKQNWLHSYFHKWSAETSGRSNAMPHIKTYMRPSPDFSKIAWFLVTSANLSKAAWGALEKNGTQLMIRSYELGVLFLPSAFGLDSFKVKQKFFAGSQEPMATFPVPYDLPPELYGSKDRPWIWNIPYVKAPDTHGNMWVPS
# Source text: FIG. 7. […] A, Schematic representation of the Tdp1 biochemical assay. The partially duplex […] D14Y or single stranded 14Y was used as a substrate. ^32P-Radiolabeling (*) was at the 5′ terminus of the 14-mer strand. Tdp1 catalyzes the hydrolysis of the 3′-phosphotyrosine bond and converts 14Y and D14Y to an oligonucleotide with 3′-phosphate, 14P or D14P respectively. […] Arrows indicate the 3′-phosphate oligonucleotide product (14P) that runs quicker than the corresponding tyrosyl oligonucleotide substrate (14Y) in a denaturing PAGE. The duplex D14Y substrate and D14P product are detected on the gel by their corresponding labeled single strands (14Y and 14P), as they are no longer annealed under the denatured conditions.
# FIG. 9. […] Aliquots were taken at the indicated times (min). Reaction products were analyzed by denaturing PAGE. B, densitometry analysis of the gel shown in A. Tdp1 activity measured as the percentage of DNA substrate 14Y converted to 14P (Left panel) or substrate 14Y remaining (Right panel) as a function of reaction time. […] A representative gel is shown. D, densitometry analysis of the gel shown in C. Tdp1 activity was calculated as the percentage of DNA substrate 14Y converted to 14P.
# FIG. 10. […] A, Sequences of the oligonucletotide substrates 14Y and 14Y-CC, which differ in their 3′-terminal bases being a -TT or a -CC that is linked to the phosphotyrosine. B, Reactions (100 μl) containing either 25 nM 14Y or 14Y-CC and 5 ng of Tdp1 was incubated at pH 8.0 at 25° C. Aliquots were taken at the indicated times (min). Reaction products were analyzed by denaturing PAGE. C, densitometry analysis of the gel shown in B. Tdp1 activity measured as the percentage of DNA substrates 14Y or 14Y-CC converted to their corresponding products as a function of reaction time. […] A representative gel is shown. E, densitometry analysis of the gel shown in D. Tdp1 activity was calculated as the percentage of DNA substrates 14Y or 14Y-CC converted to their product.
# FIG. 11. […] R; common chemical moiety. […] Samples were separated on a 20% Urea-PAGE gel and visualized.
# Preparation of Tdp1 substrates: HPLC purified oligonucleotides N14Y (Plo et al., (2003) DNA Repair (Amst) 2(10):1087-1100) were labeled at their 5′-end with [γ-^32P]-ATP (Perkin-Elmer Life Science Co., Boston, Mass.) by incubation with 3′-phosphatase free T4 polynucleotide kinase (Roche applied Science, Indianapolis, Ind.) according to the manufacturer's protocols. Unincorporated nucleotides were removed by Sephadex G-25 spin-column chromatography (Mini Quick Spin Oligo Columns, Roche, Indianapolis, Ind.). For the production of the oligonucleotide duplexes D14Y, N14Y was mixed with the complementary oligonucleotide in equal molar ratios in annealing buffer (10 mM Tris-HCl pH 7.5, 100 mM NaCl, 10 mM MgCl2), heated to 96° C., and allowed to cool down slowly (over 2 h) to room temperature. Tdp1 assays: Unless indicated otherwise, Tdp1 assays are performed in 20 μl mixtures containing 50 mM Tris-HCl, pH 8.0, 80 mM KCl, 2 mM EDTA, 1 mM dithiothreitol (D)T, and 40 μg/ml bovine serum albumin (BSA). For initial screening of Tdp1 inhibitors, 25 nM of 5′-^32P-labeled substrate (D14Y) is reacted with 1 ng Tdp1 (≈0.7 nM) in the absence or presence of inhibitor for 20 min at 25° C. Reactions are stopped by addition of 60 μl of gel loading buffer (98% (v/v) formamide, 1% (w/v) xylene cyanol, 1% (w/v) bromophenol blue). Twelve μl of aliquots are resolved in 20% denaturing polyacrylamide (AccuGel, National Diagnostics, Atlanta, Ga.) (19:1) gel containing 7 M urea. After drying, gels are exposed overnight to PhosphorImager screens (Molecular Dynamics, Sunnyvale, Calif.). Screens are scanned, and images are obtained with the Molecular Dynamics software (Sunnyvale, Calif.). Densitometry analyses are performed using ImageQuant 5.2 software package (Amersham Biosciences, Piscataway, N.J.).
# [2] = molecular target: T1, Tdp1; experiment: High-throughput electrochemiluminescent (ECL) Tdp1 assay; type: biochemical
# Source text: High-throughput electrochemiluminescene assay developed to identify novel Tdp1 inhibitors. […] This leads to a loss of the chemiluminescence signal. Positive hits for potential Tdp1 inhibitors prevent this loss of signal. C, Signal response curve in the presence of increasing concentrations (nM) of Tdp1.
# A, Graph representing the effect of 1981 compounds in the NCI-DTP diversity set on Tdp1 activity at 10 pM. Each dot indicates a signal value for a tested sample. The substrate chemiluminescence (Arbitrary units; A.U.) in the absence of Tdp1 averages at 16313±1084 (n=200; where “n” indicates the number of samples). In the presence of Tdp1 the loss of signal averages at 8784±559 (n=100). The effect of 1981 compounds screened is represented. Positive Tdp1 inhibitors prevent the loss of signal. […] Vanadate at 10 mM was used for comparison.
SMILES,Ability to inhibit Tdp1 activity in the 14Y substrate (gel) [1],"pIC50 ([1]; IC50 ds14Y, double-stranded 14Y substrate)","pIC50 ([1]; IC50 ss14Y, single-stranded 14Y substrate)","inhibition at 30 µM ([1]; 30 μM compound, 0.1 ng of Tdp1, 14Y) [%]","Inhibition of Tdp1 activity after increasing Tdp1 ([1]; 30 μM compound, Tdp1 increased to 1 ng, 14Y)",Conversion half-time (t) of 14Y ([1]; 30 μM compound) [min],Conversion half-time (t) of 14Y ([1]; 60 μM compound) [min],Type of Tdp1 inhibition ([1]; dependence on reaction time and Tdp1 concentration),"ECL signal value (substrate chemiluminescence) ([2]; 10 μM compound, without Tdp1 16313±1084, with Tdp1 8784±559) [A.U.]",inhibition at 10 µM ([2]; at 10 μM) [%]
"CC(=O)NCC(=O)O.CC(=O)NCC(=O)O.N=C(N)c1ccc(N=NNc2ccc(C(=N)N)cc2)cc1 [Berenil, reference compound]","some activity, albeit at a high concentration (300 μM)",–,–,–,–,–,–,–,–,–
CN(C)C1C(O)=C(C(=O)NCN2CCN(C(=N)NC(=N)N)CC2)C(=O)C2(O)C(O)=C3C(=O)c4c(O)cccc4C(C)(O)C3CC12 (centres unmarked) [Compound (a)],–,4.72,4.92,–,–,–,–,–,–,–
"N=C(N)c1ccc(-c2ccc(-c3ccc(C(=N)N)cc3)o2)cc1 [Compound (b), 2,5-di-(4-phenylamidine)furan]",exhibits an inhibition of Tdp1 activity at 30 μM,–,–,50,almost completely reversed,2.7,4.4,reversible inhibition,16910,100
